Measurements as given in patent US9914760B2, “Methods of identifying, isolating and using odorant and aroma receptors” (Firmenich SA, priority 2013, dated 2018).

Target: Olfr743 (Mus musculus, UniProt L7N1Y2)
Test: cell-based cAMP assay (HTRF), HEK293T co-transfected with Gαolf
Details: 300 μM 2-acetonaphthone
From the text: The activity of candidate mouse receptors Olfr740 (SEQ ID NO: 1 and SEQ ID NO: 2), Olfr743 (SEQ ID NO: 5 and SEQ ID NO: 6), and Olfr746 (SEQ ID NO: 37 and SEQ ID NO: 38) to both indole and skatole malodors were confirmed in cell-based cAMP assays. In FIGS. 5A and 5B, FLAG Rho-tagged (SEQ ID 18) Olfr743 (SEQ ID NO: 6) and Olfr740 (SEQ ID NO: 2) cDNA sequences were co-transfected with Gαolf (SEQ ID NO: 21) and exposed to increasing concentrations of indole (left) or skatole (right). FIGS. 5C and 5D are repeat experiments showing similar activity of Olfr740 (SEQ ID NO: 2) with Olfr743 (SEQ ID NO: 6) with indole and skatole. In FIG. 5E, the FLAG Rho-tagged (SEQ ID 18) Olfr746 (SEQ ID NO: 38) cDNA sequence was co-transfected with Gαolf (SEQ ID NO: 21) and exposed to increasing concentrations of indole or skatole. Odorant-induced activity was detected by measuring cAMP levels in the cytosol using the HTRF approach (CisBio kit). […] Co-transfection of HEK cells with Gαolf (SEQ ID NO: 21) alone (no receptor) were used as controls for non-specific activity (control). Activity is defined as the baseline corrected HTRF ratios normalized to the highest signal in the experiment. […] All three receptors show specific dose dependent activity to the malodor compounds and, as such, validate the process for identifying receptors for these compounds. Mouse receptors Olfr740 (SEQ ID NO: 1 and SEQ ID NO: 2) and Olfr743 (SEQ ID NO: 5 and SEQ ID NO: 6) were identified from isolated olfactory neurons that responded to both indole and skatole. Mouse receptor Olfr746 (SEQ ID NO: 37 and SEQ ID NO: 38) was identified in silico by database mining using Olfr740 (SEQ ID NO: 2) and Olfr743 (SEQ ID NO: 6) as query sequences. The receptors are modified at their N-terminus with the FLAG tag and the first 20 amino acids of the bovine rhodopsin receptor (SEQ ID 18), transiently expressed in HEK 293T cells, and stimulated separately with indole and skatole to confirm their identity as bona fide indole/skatole receptors. Co-expression of the human G alpha subunit Gαolf (SEQ ID NO: 21) activates the Gs transduction pathway that leads to an internal cAMP increase upon binding to the appropriate ligand.
Once identified using the procedure outlined herein, the resulting malodor receptor cell lines can be used to screen chemical libraries for compounds that modulate their activity and possibly human perception. This experiment was performed under the same conditions as in Example 4. Cells transfected with Rho-tagged (SEQ ID NO: 18) Olfr743 (SEQ ID NO: 6) were exposed to increasing concentrations of indole in the presence or absence of 300 μM 2-actetonaphthone. […] In the presence of the antagonist compound, a rightward shift of in the dose-response curve is observed resulting in a 4 fold increase in the EC50 to indole. Activity is defined as the baseline corrected HTRF ratios normalized to the highest signal in the experiment.

Sequence of Olfr743 (P38405 2-381): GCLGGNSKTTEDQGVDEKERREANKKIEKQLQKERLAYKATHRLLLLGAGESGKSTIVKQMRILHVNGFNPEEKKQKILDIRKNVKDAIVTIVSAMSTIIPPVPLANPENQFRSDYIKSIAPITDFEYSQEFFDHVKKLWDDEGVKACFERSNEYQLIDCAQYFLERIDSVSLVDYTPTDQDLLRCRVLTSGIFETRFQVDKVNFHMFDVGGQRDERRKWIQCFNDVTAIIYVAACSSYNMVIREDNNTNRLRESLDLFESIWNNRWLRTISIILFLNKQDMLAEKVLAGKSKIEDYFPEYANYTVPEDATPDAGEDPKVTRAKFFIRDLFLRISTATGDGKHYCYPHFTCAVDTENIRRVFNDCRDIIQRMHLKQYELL
Sequence of Olfr743 (L7N1Y2 entry or part of it): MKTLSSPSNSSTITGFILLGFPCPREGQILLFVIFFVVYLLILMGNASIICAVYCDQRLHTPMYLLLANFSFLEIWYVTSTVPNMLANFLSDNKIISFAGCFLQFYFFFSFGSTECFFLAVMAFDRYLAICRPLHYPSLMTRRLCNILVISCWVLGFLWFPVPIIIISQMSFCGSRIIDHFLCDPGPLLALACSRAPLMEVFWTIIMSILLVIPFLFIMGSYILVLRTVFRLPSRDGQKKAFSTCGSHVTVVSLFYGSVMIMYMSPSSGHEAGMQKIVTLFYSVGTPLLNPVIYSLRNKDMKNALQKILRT

CC(=O)c1ccc2ccccc2c1 [2-acetonaphthone] was tested, and the “inhibition of Olfr743 activity to indole” value was “inhibits the activity” and the “increase in the EC50 to indole” value (rightward shift of dose-response curve) was 4 fold.
